Measurements taken from ChEMBL document CHEMBL1821584, “Docking and 3D-QSAR (quantitative structure activity relationship) studies of flavones, the potent inhibitors of p-glycoprotein targeting the nucleotide binding domain” (Eur J Med Chem, 2011).

Molecular target: ATP-dependent translocase ABCB1 (Homo sapiens, UniProt P08183)
Assay: Binding affinity to ABCB1 nucleotide binding domain 2

Chain of ATP-dependent translocase ABCB1 (P08183 whole entry, the tested form may be a part): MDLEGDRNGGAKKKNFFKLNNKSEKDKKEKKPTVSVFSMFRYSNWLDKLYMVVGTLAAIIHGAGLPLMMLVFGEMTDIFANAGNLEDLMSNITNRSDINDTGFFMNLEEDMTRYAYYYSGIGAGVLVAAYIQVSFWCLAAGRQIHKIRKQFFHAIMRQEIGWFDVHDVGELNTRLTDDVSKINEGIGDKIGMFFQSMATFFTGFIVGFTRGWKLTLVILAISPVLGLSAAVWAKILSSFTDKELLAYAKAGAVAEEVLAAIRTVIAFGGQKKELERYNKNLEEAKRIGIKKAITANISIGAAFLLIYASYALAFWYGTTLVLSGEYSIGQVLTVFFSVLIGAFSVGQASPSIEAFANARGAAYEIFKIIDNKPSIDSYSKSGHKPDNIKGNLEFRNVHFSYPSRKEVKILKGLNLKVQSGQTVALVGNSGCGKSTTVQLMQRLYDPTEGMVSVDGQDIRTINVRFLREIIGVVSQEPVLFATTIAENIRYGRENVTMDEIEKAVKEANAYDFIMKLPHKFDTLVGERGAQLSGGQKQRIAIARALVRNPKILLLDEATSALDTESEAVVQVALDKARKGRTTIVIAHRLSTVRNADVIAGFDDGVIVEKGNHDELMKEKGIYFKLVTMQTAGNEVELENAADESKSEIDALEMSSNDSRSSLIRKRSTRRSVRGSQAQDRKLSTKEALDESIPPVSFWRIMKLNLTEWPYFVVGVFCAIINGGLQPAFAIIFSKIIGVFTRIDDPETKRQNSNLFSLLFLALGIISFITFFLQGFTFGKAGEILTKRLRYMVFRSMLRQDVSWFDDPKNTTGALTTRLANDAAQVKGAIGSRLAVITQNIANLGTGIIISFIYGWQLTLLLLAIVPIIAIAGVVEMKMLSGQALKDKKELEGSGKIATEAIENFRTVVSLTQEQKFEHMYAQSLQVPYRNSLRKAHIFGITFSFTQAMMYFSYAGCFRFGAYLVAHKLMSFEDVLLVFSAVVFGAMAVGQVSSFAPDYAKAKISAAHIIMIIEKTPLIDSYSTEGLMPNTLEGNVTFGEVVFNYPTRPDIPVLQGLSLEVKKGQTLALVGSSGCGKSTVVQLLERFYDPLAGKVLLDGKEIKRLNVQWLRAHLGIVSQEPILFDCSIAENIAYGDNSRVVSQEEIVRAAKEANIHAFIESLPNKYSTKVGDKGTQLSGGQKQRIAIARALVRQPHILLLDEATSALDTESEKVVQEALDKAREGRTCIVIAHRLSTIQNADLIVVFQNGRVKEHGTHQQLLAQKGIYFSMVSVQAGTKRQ

## CC(C)=Cc1c(O)cc2oc(-c3ccccc3)c(O)c(=O)c2c1O
  Kd: 0.209 µM

## C=CC(C)(C)c1c(O)cc(O)c2c(=O)c(O)c(-c3ccc(OC)cc3)oc12
  Kd: 0.2 µM

## O=c1c(O)c(-c2ccc(F)cc2)oc2cc(O)cc(O)c12
  Kd: 6.76 µM

## Cc1c(O)cc2oc(-c3ccccc3)cc(=O)c2c1O
  Kd: 3.09 µM

## O=c1cc(-c2ccccc2)oc2cc(O)ccc12 [7-HYDROXYFLAVONE]
  Kd: 34.7 µM

## O=c1cc(-c2ccccc2)oc2c(Cc3ccccc3)c(O)cc(O)c12
  Kd: 1 µM

## O=c1c(O)c(-c2ccc(I)cc2)oc2cc(O)cc(O)c12
  Kd: 1.1 µM

## C=CC(C)(C)c1c(O)cc(O)c2c(=O)cc(-c3ccccc3)oc12
  Kd: 0.2 µM

## COc1ccc(-c2oc3cc(O)cc(O)c3c(=O)c2O)cc1 [KAEMPFERIDE]
  Kd: 4.47 µM

## CC(C)Oc1c(C(C)C)c(O)c2c(=O)cc(-c3ccccc3)oc2c1C(C)C
  Kd: 0.0331 µM

## CC(C)=Cc1c(O)cc(O)c2c(=O)cc(-c3ccccc3)oc12
  Kd: 0.282 µM

## O=c1c(O)c(-c2ccc(Cl)cc2Cl)oc2cc(O)cc(O)c12
  Kd: 3.98 µM

## CC(C)Oc1cc2oc(-c3ccccc3)cc(=O)c2c(O)c1C(C)C
  Kd: 0.282 µM

## O=c1c(O)c(-c2ccc(O)cc2)oc2cc(O)cc(O)c12 [KAEMPFEROL]
  Kd: 6.76 µM

## O=c1cc(-c2ccccc2)oc2c(Cc3ccccc3)c(O)c(Cc3ccccc3)c(O)c12
  Kd: 0.0363 µM

## O=c1cc(-c2ccccc2)oc2cc(OCc3ccccc3)cc(O)c12
  Kd: 0.0676 µM

## O=c1cc(-c2ccccc2)oc2ccccc12 [FLAVONE]
  Kd: 33.9 µM

## O=c1cc(-c2ccc(I)cc2)oc2cc(O)cc(O)c12
  Kd: 2.19 µM

## C=CC(C)(C)c1c(O)cc(O)c2c(=O)c(O)c(-c3ccccc3)oc12
  Kd: 0.447 µM

## O=c1cc(-c2ccc(O)cc2)oc2cc(O)cc(O)c12 [APIGENIN]
  Kd: 10 µM

## C=CC(C)(C)c1c(O)cc(O)c2c(=O)cc(-c3ccc(O)cc3)oc12
  Kd: 0.708 µM

## CC(C)=Cc1c(O)cc2oc(-c3ccccc3)cc(=O)c2c1O
  Kd: 0.302 µM

## COc1c(-c2ccccc2)oc2cc(O)cc(O)c2c1=O
  Kd: 8.91 µM

## CC(C)=CCC/C(C)=C/c1c(O)cc2oc(-c3ccccc3)cc(=O)c2c1O
  Kd: 0.0447 µM

## COc1cc(O)c2c(=O)cc(-c3ccccc3)oc2c1 [TECHTOCHRYSIN]
  Kd: 6.31 µM

## O=c1c(-c2ccc(O)cc2)coc2cc(O)cc(O)c12 [GENISTEIN]
  Kd: 26.3 µM

## C=CC(C)(C)c1c(OC)cc(O)c2c(=O)c(OC)c(-c3ccccc3)oc12
  Kd: 0.151 µM

## CC(C)=Cc1c(O)cc(O)c2c(=O)c(O)c(-c3ccccc3)oc12
  Kd: 0.219 µM

## O=c1c(O)c(-c2ccccc2)oc2ccccc12 [FLAVONOL]
  Kd: 10 µM

## O=c1cc(-c2ccccc2)oc2cc(O)cc(O)c12 [CHRYSIN]
  Kd: 8.91 µM

## CCCCCCCCc1ccc(-c2oc3cc(O)cc(O)c3c(=O)c2O)cc1
  Kd: 0.0575 µM

## CC(C)Oc1cc(O)c2c(=O)cc(-c3ccccc3)oc2c1
  Kd: 1 µM

## O=c1c(O)c(C(c2ccccc2)c2ccccc2)oc2cc(O)cc(O)c12
  Kd: 2 µM

## CC(C)c1c(O)cc2oc(-c3ccccc3)cc(=O)c2c1O
  Kd: 0.209 µM

## COc1cc2oc(-c3ccccc3)cc(=O)c2c(O)c1C
  Kd: 1.29 µM

## CC(C)=CCC/C(C)=C/c1c(O)cc(O)c2c(=O)cc(-c3ccccc3)oc12
  Kd: 0.0251 µM

## O=c1c(O)c(-c2ccccc2)oc2cc(O)cc(O)c12 [GALANGIN]
  Kd: 5.89 µM

## CC(C)=Cc1c(O)c(C=C(C)C)c2oc(-c3ccccc3)cc(=O)c2c1O
  Kd: 0.0151 µM

## O=c1cc(-c2ccccc2)oc2cc(O)c(Cc3ccccc3)c(O)c12
  Kd: 0.339 µM

## O=c1cc(-c2ccc(F)c(F)c2)oc2cc(O)cc(O)c12
  Kd: 6.31 µM
